Reference: patent US20110172296A1, “MODULATION OF TRANSFORMING GROWTH FACTOR-BETA 1 EXPRESSION” (priority 2010, published 2011)
Values joined by “and” are separate entries in the source; they are usually repeats but may differ in a detail not shown here. Equal entries are not always repeated. “Also recorded” adds a separate entry of the source. In the oligonucleotide strings, read from the 5' end, every base follows the letter of its sugar. An asterisk marks phosphorothioate; unmarked linkages are phosphodiester. Other units and linkages are bracketed, terminal groups are in braces. A string of capitals states the bases alone. e = 2'-O-(2-methoxyethyl) (MOE); [5mC] = 5-methylcytosine; d = 2'-deoxy (DNA)

Columns and labels:
human TGF-beta1 mRNA [1] = assay: Dose-dependent antisense inhibition of human TGF-beta1 in HuVEC cells, Lipofectamine 2000, 0.3292-80 nM, comparison with oligos of U.S. Pat. No. 6,436,909 (Example 4); type: cell-based
Procedure: The dose-dependent antisense inhibition potential of these gapmers was compared with that of Oligo IDs 104992 and 1138498 from U.S. Pat. No. 6,436,909. Cells were plated at a density of 5,000 cells per well and transfected using Lipofectamine™ 2000 reagent with 0.3292 nM, 0.9877 nM, 2.963 nM, 8.8889 nM, 26.6667 nM, and 80 nM concentrations of antisense oligonucleotide for 4 hours, as specified in Table 4. After a recovery period of approximately 16 hours, RNA was isolated from the cells and TGF-beta1 mRNA levels were measured by quantitative real-time PCR. Human TGF-beta1 primer probe set RTS 2980 was used to measure mRNA levels. TGF-beta1 mRNA levels were adjusted according to total RNA content, as measured by RIBOGREEN®. Results are presented as percent inhibition of TGF-beta1, relative to untreated control cells. […] All the antisense oligonucleotides in Table 4 target human TGF-beta1 mRNA (SEQ ID NO: 1).

BALB/c mice = assay: Tolerability in BALB/c mice: plasma transaminases ALT and AST (Example 7); conditions: for aspartate transaminase levels: plasma
human TGF-beta1 mRNA [2] = assay: Dose-dependent confirmation of antisense inhibition of human TGF-beta1 in HuVEC cells, electroporation (Example 6); type: cell-based
Procedure: The gapmers from Example 5 (see Table 5) were also tested at various doses in HuVEC cells using electroporation as the transfection reagent. Cells were plated at a density of 20,000 cells per well and transfected using electroporation with 0.15625 nM, 0.3125 nM, 0.625 nM, 1.25 nM, 2.5 nM, 5 nM, 10 nM, and 20 nM concentrations of antisense oligonucleotide for 4 hours, as specified in Table 6. After a recovery period of approximately 16 hours, RNA was isolated from the cells and TGF-beta1 mRNA levels were measured by quantitative real-time PCR. TGF-beta1 mRNA levels were adjusted according to total RNA content, as measured by RIBOGREEN®. Results are presented as percent inhibition of TGF-beta1, relative to untreated control cells.

human TGF-beta1 mRNA [3] = assay: Dose-dependent confirmation of antisense inhibition of human TGF-beta1 in HuVEC cells after large-scale synthesis, Lipofectamine 2000, 0.007-15 nM (Example 5); type: cell-based; conditions: for percent inhibition of TGF-beta1: Lipofectamine 2000
Procedure: Cells were plated at a density of 5,000 cells per well and transfected using Lipofectamine™ 2000 reagent with 0.007 nM, 0.021 nM, 0.062 nM, 0.185 nM, 0.556 nM, 1.667 nM, 5 nM, and 15 nM concentrations of antisense oligonucleotide for 4 hours, as specified in Table 5. After a recovery period of approximately 16 hours, RNA was isolated from the cells and TGF-beta1 mRNA levels were measured by quantitative real-time PCR. Human TGF-beta1 primer probe set RTS 2980 was used to measure mRNA levels. TGF-beta1 mRNA levels were adjusted according to total RNA content, as measured by RIBOGREEN®. Results are presented as percent inhibition of TGF-beta1, relative to untreated control cells.

human TGF-beta1 mRNA [4] = assay: Antisense inhibition of human TGF-beta1 mRNA in HuVEC cells, single 10 nM dose, Lipofectamine 2000 (Example 2); type: cell-based
How it was run: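 Percent inhibition relative to untreated controls, from qRT-PCR of mRNA corrected for total RNA (RIBOGREEN). Cells were exposed 4 h to 10 nM phosphorothioate 2-13-5 MOE gapmers with Lipofectamine 2000 at 5,000 cells/well. RNA was harvested after roughly 24 h recovery.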

human TGF-beta1 mRNA [5] = assay: Dose-dependent antisense inhibition of human TGF-beta1 in HuVEC cells, Lipofectamine 2000, 0.9375-30 nM (Example 3); type: cell-based; conditions: Lipofectamine 2000
Procedure: Cells were plated at a density of 5,000 cells per well and transfected using Lipofectamine™ 2000 reagent with 0.9375 nM, 1.875 nM, 3.75 nM, 7.5 nM, 15 nM, and 30 nM concentrations of antisense oligonucleotide for 4 hours, as specified in Table 3. After a recovery period of approximately 16 hours, RNA was isolated from the cells and TGF-beta1 mRNA levels were measured by quantitative real-time PCR. Human TGF-beta1 primer probe set RTS 2980 (forward sequence CTCTCCGACCTGCCACAGA, SEQ ID NO: 160; reverse sequence […], SEQ ID NO: 53; probe sequence CCCTATTCAAGACCACCCACCTTCTGGTX, SEQ ID NO: 161) was used to measure mRNA levels. TGF-beta1 mRNA levels were adjusted according to total RNA content, as measured by RIBOGREEN®. Results are presented as percent inhibition of TGF-beta1, relative to untreated control cells.

[6] = test system: bleomycin-induced skin fibrosis in C57BL/6 mice; assay: Bleomycin-induced murine model of skin fibrosis: skin thickness and breaking strength (Example 10); type: in vivo, mouse; conditions: for bleomycin-induced skin fibrosis and thickening: C57BL/6 mice, 5 mg intradermally twice a week, Day 18
Procedure: The ability of a TGF-beta1 ASO to reduce the induction of skin fibrosis in a bleomycin-induced model of dermal fibrosis was evaluated.
Two groups of 8 C57BL/6 mice each were treated with bleomycin every other day for 19 days. Bleomycin, at a concentration of 10 mg/mL in PBS and at a volume of 0.1 mL, was injected subcutaneously into the shaved backs of the mice. The injection site was divided into 4 quadrants. The 100 μL volume of bleomycin was divided into four 25 μL aliquots injected at 90 degree intervals, to the upper left, upper right, lower left, and lower right “quadrants”.
Each of the two groups was treated intradermally with PBS (vehicle) or a 5 mg dose of a TGF-beta1 antisense oligonucleotide (Oligo ID 433849) twice a week, starting from day 1 of bleomycin administration. Animals were sacrificed on Day 18 of the study. Skin thickness was measured by skin calipers on 6-mm punch biopsy specimens obtained from the upper back of the mice. Breaking strength of the skin was measured on the 6-mm punch biopsy specimens using a tensiometer (Series EG2 digital force gauge; Mark-10, Copiague, N.Y.), and the point of maximal stress before tearing of the biopsy specimen was recorded. All measurements were undertaken in a blinded manner.

**Q.** How did the “percent inhibition of TGF-beta1” value (human TGF-beta1 mRNA [1]; 0.3292 nM) turn out when “414040 (antisense e[5mC]*eT*d[5mC]*dT*d[5mC]*dT*d[5mC]*d[5mC]*dA*dT*d[5mC]*dT*dT*dT*dA*eA*eT*eG*eG*eG) [compound 414040]” was run?
**A.** 85%

**Q.** And the “percent inhibition of TGF-beta1” value (human TGF-beta1 mRNA [1]; 0.9877 nM)?
**A.** 90%

**Q.** What about the “percent inhibition of TGF-beta1” value (human TGF-beta1 mRNA [1]; 2.963 nM) of the same substance?
**A.** 94%

**Q.** What about the “percent inhibition of TGF-beta1” value (human TGF-beta1 mRNA [1]; 8.8889 nM) of the same substance?
**A.** 94%

**Q.** What about the “percent inhibition of TGF-beta1” value (human TGF-beta1 mRNA [1]; 26.6667 nM) of the same substance?
**A.** 94%

**Q.** What about the “percent inhibition of TGF-beta1” value (human TGF-beta1 mRNA [1]; 80.0 nM) of the same substance?
**A.** 93%

**Q.** And the alanine transaminase levels (BALB/c mice; 25 mg/kg twice a week, Week 2)?
**A.** 178 IU/L

**Q.** And the alanine transaminase levels (BALB/c mice; 25 mg/kg twice a week, Week 4)?
**A.** 2248 IU/L

**Q.** What about the aspartate transaminase levels (BALB/c mice; 25 mg/kg twice a week, Week 2) of the same substance?
**A.** 128 IU/L

**Q.** What about the aspartate transaminase levels (BALB/c mice; 25 mg/kg twice a week, Week 4) of the same substance?
**A.** 1405 IU/L

**Q.** And the alanine transaminase levels (BALB/c mice; 50 mg/kg twice a week, Week 2)?
**A.** 837 IU/L

**Q.** And the alanine transaminase levels (BALB/c mice; 50 mg/kg twice a week, Week 4)?
**A.** 4997 IU/L

**Q.** And the aspartate transaminase levels (BALB/c mice; 50 mg/kg twice a week, Week 2)?
**A.** 529 IU/L

**Q.** And the aspartate transaminase levels (BALB/c mice; 50 mg/kg twice a week, Week 4)?
**A.** 2237 IU/L

**Q.** What about the “increase in ALT levels” value (BALB/c mice; compared to placebo (PBS) controls) of the same substance?
**A.** > 160 fold and 166 fold

**Q.** And the “percent inhibition of TGF-beta1 mRNA relative to untreated control cells” value (human TGF-beta1 mRNA [2]; 0.15625 nM oligonucleotide)?
**A.** 57%

**Q.** What about the “percent inhibition of TGF-beta1 mRNA relative to untreated control cells” value (human TGF-beta1 mRNA [2]; 0.3125 nM oligonucleotide) of the same substance?
**A.** 68%

**Q.** What about the “percent inhibition of TGF-beta1 mRNA relative to untreated control cells” value (human TGF-beta1 mRNA [2]; 0.625 nM oligonucleotide) of the same substance?
**A.** 81%

**Q.** And the “percent inhibition of TGF-beta1 mRNA relative to untreated control cells” value (human TGF-beta1 mRNA [2]; 1.25 nM oligonucleotide)?
**A.** 91%

**Q.** And the “percent inhibition of TGF-beta1 mRNA relative to untreated control cells” value (human TGF-beta1 mRNA [2]; 2.5 nM oligonucleotide)?
**A.** 93%

**Q.** What about the “percent inhibition of TGF-beta1 mRNA relative to untreated control cells” value (human TGF-beta1 mRNA [2]; 5.00 nM oligonucleotide) of the same substance?
**A.** 95%

**Q.** And the “percent inhibition of TGF-beta1 mRNA relative to untreated control cells” value (human TGF-beta1 mRNA [2]; 10.00 nM oligonucleotide)?
**A.** 94%

**Q.** What about the “percent inhibition of TGF-beta1 mRNA relative to untreated control cells” value (human TGF-beta1 mRNA [2]; 20 nM oligonucleotide) of the same substance?
**A.** 94%

**Q.** What about the “percent inhibition of TGF-beta1” value (human TGF-beta1 mRNA [3]; 0.007 nM) of the same substance?
**A.** 19%

**Q.** And the “percent inhibition of TGF-beta1” value (human TGF-beta1 mRNA [3]; 0.021 nM)?
**A.** 45%

**Q.** What about the “percent inhibition of TGF-beta1” value (human TGF-beta1 mRNA [3]; 0.062 nM) of the same substance?
**A.** 58%

**Q.** And the “percent inhibition of TGF-beta1” value (human TGF-beta1 mRNA [3]; 0.185 nM)?
**A.** 76%

**Q.** And the “percent inhibition of TGF-beta1” value (human TGF-beta1 mRNA [3]; 0.556 nM)?
**A.** 83%

**Q.** And the “percent inhibition of TGF-beta1” value (human TGF-beta1 mRNA [3]; 1.667 nM)?
**A.** 89%

**Q.** What about the “percent inhibition of TGF-beta1” value (human TGF-beta1 mRNA [3]; 5 nM) of the same substance?
**A.** 92%

**Q.** What about the “percent inhibition of TGF-beta1” value (human TGF-beta1 mRNA [3]; 15 nM) of the same substance?
**A.** 93%

**Q.** What about the IC50 (human TGF-beta1 mRNA [3]; Lipofectamine 2000, Example 5) of the same substance?
**A.** 0.04 nM

**Q.** What about the “% inhibition” value (human TGF-beta1 mRNA [4]; 10 nM oligonucleotide, HuVEC, relative to untreated control cells, gapmers targeted to SEQ ID NO: 1) of the same substance?
**A.** 90%

**Q.** What about the “inhibition of a TGF-beta1 mRNA” value (human TGF-beta1 mRNA [4]; threshold lists of Oligo IDs, 10 nM) of the same substance?
**A.** 60% and 65% and 70% and 75% and 80% and 85% and 90%

**Q.** What about the “percent inhibition of TGF-beta1” value (human TGF-beta1 mRNA [5]; 0.9375 nM) of the same substance?
**A.** 72%

**Q.** And the “percent inhibition of TGF-beta1” value (human TGF-beta1 mRNA [5]; 1.875 nM)?
**A.** 83%

**Q.** What about the “percent inhibition of TGF-beta1” value (human TGF-beta1 mRNA [5]; 3.75 nM) of the same substance?
**A.** 90%

**Q.** And the “percent inhibition of TGF-beta1” value (human TGF-beta1 mRNA [5]; 7.5 nM)?
**A.** 94%

**Q.** What about the “percent inhibition of TGF-beta1” value (human TGF-beta1 mRNA [5]; 15 nM) of the same substance?
**A.** 95%

**Q.** What about the “percent inhibition of TGF-beta1” value (human TGF-beta1 mRNA [5]; 30 nM) of the same substance?
**A.** 95%

**Q.** With “Oligo ID 433849: rat specific TGF-beta1 antisense oligonucleotide; SEQ ID NO. 166 (antisense GTCCTTAAATACAGCCCCGG; listed as DNA, chemistry not given here) [rat specific TGF-beta1 antisense oligonucleotide; 166]” as the substance, how does the “bleomycin-induced skin fibrosis and thickening” value [6] read?
**A.** significantly reduced

**Q.** What about the “bleomycin-induced skin fibrosis and thickening” value ([6]; listed as TGF-beta1 ASO) of the same substance?
**A.** significantly reduced; also recorded: reduced the severity

**Q.** Which skin thickness ([6]; bleomycin-treated mice, from 30 mm) does the source give for bleomycin [reference compound] here?
**A.** 40-45 mm

**Q.** And the “breaking strength of skin” value ([6]; bleomycin-treated mice, untreated skin typically 0.2 kg tension)?
**A.** approximately 0.47 kg
